Patent US9376418B2, “Substituted pyridine spleen tyrosine kinase (SYK) inhibitors” (Merck Sharp & Dohme Corp., priority 2012, dated 2016)

target: T1, recombinant human GST-SYK (Homo sapiens, UniProt P43405); test: Homogeneous Time-Resolved Fluorescence (HTRF) assay for the recombinant human Syk enzyme; type: biochemical; settings: HTRF assay, recombinant human GST-SYK; IC50 given as class symbols; read-out: rhSYK Activity
T1 construct: purchased Carna Biosciences 08-176
How it was run: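 HTRF read-out: Europium-anti-phosphotyrosine antibody (2 nM) plus SA-APC (70 nM) in EDTA-containing buffer quenched the reaction, and signal was read after 30 minutes. Kinase step used […], 250 nM biotinylated peptide, 25 μM ATP, 5 mM Mg, 45′ at room temperature.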

IC50 | SMILES
< 100 nM | Cc1cc(Nc2nccc(C(F)(F)F)n2)cc(-c2ccc(C3(O)CCCC(C(=O)O)C3)nc2)c1 (centres unmarked) [Example 9.21, 3-hydroxy-3-[5-(3-methyl-5-{[4-(trifluoromethyl)pyrimidin-2-yl]amino}phenyl)pyridin-2-yl]cyclohexanecarboxylic acid]
< 100 nM | Cc1cc(Nc2nccc(C(F)(F)F)n2)cc(-c2cncc(C(C)(O)C(F)(F)F)c2)c1 (centres unmarked) [Example 9.81, 1,1,1-trifluoro-2-[5-(3-methyl-5-{[4-(trifluoromethyl)pyrimidin-2-yl]amino}phenyl)pyridin-3-yl]propan-2-ol]
100 to 1000 nM | Cc1cc(Nc2nccc(C(F)(F)F)n2)cc(-c2ccnc(N3CCC4(CCCC(=O)N4)CC3)c2)c1 [Example 15.25, 9-[4-(3-methyl-5-{[4-(trifluoromethyl)pyrimidin-2-yl]amino}phenyl)pyridin-2-yl]-1,9-diazaspiro[5.5]undecan-2-one]
< 100 nM | Cc1cc(Nc2nccc(C(F)(F)F)n2)cc(-c2ccnc(N3CC(C)NC(C)C3)c2)c1 (centres unmarked) [Example 15.85, N-{3-[2-(3,5-dimethylpiperazin-1-yl)pyridin-4-yl]-5-methylphenyl}-4-(trifluoromethyl)pyrimidin-2-amine]
100 to 1000 nM | Cc1cc(Nc2nccc(C(F)(F)F)n2)cc(-c2ccc(NC(C)(C#N)C(C)(C)C)nc2)c1 (centres unmarked) [Example 18.3, 2,3,3-trimethyl-2-{[5-(3-methyl-5-{[4-(trifluoromethyl)pyrimidin-2-yl]amino}phenyl)pyridin-2-yl]amino}butanenitrile]
100 to 1000 nM | Cc1cc(Nc2nccc(C(F)(F)F)n2)cc(-c2ccnc(NCc3cnn(C)c3)c2)c1 [Example 15.35, N-[3-methyl-5-(2-{[(1-methyl-1H-pyrazol-4-yl)methyl]amino}pyridin-4-yl)phenyl]-4-(trifluoromethyl)pyrimidin-2-amine]
< 100 nM | Cc1cc(Nc2nccc(C(F)(F)F)n2)cc(-c2cncc(C(O)(CO)CO)c2)c1 [Example 9.80, 2-[5-(3-methyl-5-{[4-(trifluoromethyl)pyrimidin-2-yl]amino}phenyl)pyridin-3-yl]propane-1,2,3-triol]
< 100 nM | Cc1cc(Nc2nccc(C(F)(F)F)n2)cc(-c2cncc([C@]3(O)CC[C@@H](C(=O)O)CC3)c2)c1 [Example 9.69, cis-4-hydroxy-4-[5-(3-methyl-5-{[4-(trifluoromethyl)pyrimidin-2-yl]amino}phenyl)pyridin-3-yl]cyclohexanecarboxylic acid]
< 100 nM | Cc1cc(Nc2nccc(C(F)(F)F)n2)cc(-c2ccc(C(=O)N3CCS(=O)(=O)CC3)nc2)c1 [Example 16.55, N-(3-{6-[(1,1-dioxidothiomorpholin-4-yl)carbonyl]pyridin-3-yl}-5-methylphenyl)-4-(trifluoromethyl)pyrimidin-2-amine]
< 100 nM | CCOC(=O)C(F)(F)C(O)c1ccc(-c2cc(C)cc(Nc3nccc(C(F)(F)F)n3)c2)cn1 (centres unmarked) [Example 24.1, Ethyl 2,2-difluoro-3-hydroxy-3-[5-(3-methyl-5-{[4-(trifluoromethyl)pyrimidin-2-yl]amino}phenyl)pyridin-2-yl]propanoate]
< 100 nM | Cc1cc(Nc2nccc(C(F)(F)F)n2)cc(-c2ccc(C(=O)N(CCO)CCO)nc2)c1 [Example 16.60, N,N-bis(2-hydroxyethyl)-5-(3-methyl-5-{[4-(trifluoromethyl)pyrimidin-2-yl]amino}phenyl)pyridine-2-carboxamide]

More lines, now with the values behind:

SMILES | IC50
Cc1cc(Nc2nccc(C(F)(F)F)n2)cc(-c2ccc(N3CC(C)NC(C)C3)nc2)c1 (centres unmarked) [Example 7.58, N-{3-[6-(3,5-dimethylpiperazin-1-yl)pyridin-3-yl]-5-methylphenyl}-4-(trifluoromethyl)pyrimidin-2-amine] | < 100 nM
Cc1cc(Nc2nccc(C(F)(F)F)n2)cc(-c2cncc(CCC(=O)O)c2)c1 [Example 2.86, 3-[5-(3-methyl-5-{[4-(trifluoromethyl)pyrimidin-2-yl]amino}phenyl)pyridin-3-yl]propanoic acid] | < 100 nM
CCOC(=O)CCc1cncc(-c2cc(C)cc(Nc3nccc(C)n3)c2)c1 [Example 2.88, ethyl 3-(5-{3-methyl-5-[(4-methylpyrimidin-2-yl)amino]phenyl}pyridin-3-yl)propanoate] | 100 to 1000 nM
Cc1cc(Nc2nccc(C(F)(F)F)n2)cc(-c2ccc(N3CC(C(=O)O)C3)nc2)c1 [Example 7.133, 1-[5-(3-methyl-5-{[4-(trifluoromethyl)pyrimidin-2-yl]amino}phenyl)pyridin-2-yl]azetidine-3-carboxylic acid] | < 100 nM
CNC(=O)CNc1ccc(-c2cc(C)cc(Nc3nccc(C(F)(F)F)n3)c2)cn1 [Example 7.29, N-methyl-N~2~-[5-(3-methyl-5-{[4-(trifluoromethyl)pyrimidin-2-yl]amino}phenyl)pyridin-2-yl]glycinamide] | < 100 nM
Cc1cc(Nc2nccc(C(F)(F)F)n2)cc(-c2ccc(N(C)CCO)nc2)c1 [Example 7.30, 2-{methyl[5-(3-methyl-5-{[4-(trifluoromethyl)pyrimidin-2-yl]amino}phenyl)pyridin-2-yl]amino}ethanol] | < 100 nM
Cc1cc(Nc2nccc(C(F)(F)F)n2)cc(-c2ccc(N3CCNC(=O)CC3)nc2)c1 [Example 7.27, 1-[5-(3-methyl-5-{[4-(trifluoromethyl)pyrimidin-2-yl]amino}phenyl)pyridin-2-yl]-1,4-diazepan-5-one] | < 100 nM
NC(=O)c1ccnc(-c2cccc(Nc3nccc(C(F)(F)F)n3)c2)c1 [Example 2.7, 2-(3-{[4-(trifluoromethyl)pyrimidin-2-yl]amino}phenyl)pyridine-4-carboxamide] | 100 to 1000 nM
Cc1cc(Nc2nccc(C(F)(F)F)n2)cc(-c2ccc(NC3CCNC3=O)nc2)c1 (centres unmarked) [Example 7.22, 3-{[5-(3-methyl-5-{[4-(trifluoromethyl)pyrimidin-2-yl]amino}phenyl)pyridin-2-yl]amino}pyrrolidin-2-one] | < 100 nM
COc1cc(-c2cc(C)cc(Nc3nccc(C(F)(F)F)n3)c2)ccn1 [Example 4.10] | 100 to 1000 nM
Cc1cc(Nc2nccc(C(F)(F)F)n2)cc(-c2ccnc(CCC(=O)O)c2)c1 [Example 2.133, 3-[4-(3-methyl-5-{[4-(trifluoromethyl)pyrimidin-2-yl]amino}phenyl)pyridin-2-yl]propanoic acid] | < 100 nM
CCOC(=O)CCc1ccc(-c2cc(C)cc(Nc3nccc(C)n3)c2)nc1 [Example 2.36, ethyl 3-(6-{3-methyl-5-[(4-methylpyrimidin-2-yl)amino]phenyl}pyridin-3-yl)propanoate] | 1000 to 10000 nM
Cc1cc(Nc2nccc(C(F)(F)F)n2)cc(-c2ccc(N)nc2)c1 [Example 4.2, N-[3-(6-aminopyridin-3-yl)-5-methylphenyl]-4-(trifluoromethyl)pyrimidin-2-amine] | < 100 nM
COc1ccc(-c2cccc(Nc3nccc(C(F)(F)F)n3)c2)cn1 [Example 2.41, N-[3-(6-methoxypyridin-3-yl)phenyl]-4-(trifluoromethyl)pyrimidin-2-amine] | 100 to 1000 nM
CCOC(=O)CCc1cccc(-c2cc(C)cc(Nc3nccc(C4CC4)n3)c2)n1 [Example 2.38, ethyl 3-(6-{3-[(4-cyclopropylpyrimidin-2-yl)amino]-5-methylphenyl}pyridin-2-yl)propanoate] | 100 to 1000 nM
Cc1cc(Nc2nccc(C(F)(F)F)n2)cc(-c2ccc(NCC(=O)N(C)C)nc2)c1 [Example 7.66, N,N-dimethyl-N~2~-[5-(3-methyl-5-{[4-(trifluoromethyl)pyrimidin-2-yl]amino}phenyl)pyridin-2-yl]glycinamide] | < 100 nM
Cc1cc(Nc2nccc(C(F)(F)F)n2)cc(-c2ccc(CO)nc2)c1 [Example 4.7, [5-(3-methyl-5-{[4-(trifluoromethyl)pyrimidin-2-yl]amino}phenyl)pyridin-2-yl]methanol] | < 100 nM
CC(=O)c1cncc(-c2cc(C)cc(Nc3nccc(C(F)(F)F)n3)c2)c1 [Example 2.48, 1-[5-(3-methyl-5-{[4-(trifluoromethyl)pyrimidin-2-yl]amino}phenyl)pyridin-3-yl]ethanone] | < 100 nM
CC[C@H](Nc1ccc(-c2cc(C)cc(Nc3nccc(C(F)(F)F)n3)c2)cn1)C(=O)O [Example 7.103, (2S)-2-{[5-(3-methyl-5-{[4-(trifluoromethyl)pyrimidin-2-yl]amino}phenyl)pyridin-2-yl]amino}butanoic acid] | < 100 nM
Cc1cc(Nc2nccc(C(F)(F)F)n2)cc(-c2ccc(NCc3cnn(C)c3)nc2)c1 [Example 7.20, N-[3-methyl-5-(6-{[(1-methyl-1H-pyrazol-4-yl)methyl]amino}pyridin-3-yl)phenyl]-4-(trifluoromethyl)pyrimidin-2-amine] | 100 to 1000 nM
Cc1cc(Nc2nccc(C(F)(F)F)n2)cc(-c2ccc(N3CCCC3C(=O)O)nc2)c1 (single isomer, unassigned) [Example 7.122, 1-[5-(3-methyl-5-{[4-(trifluoromethyl)pyrimidin-2-yl]amino}phenyl)pyridin-2-yl]proline] | < 100 nM
Cc1cc(Nc2nccc(C(F)(F)F)n2)cc(-c2ccc(N3CCC[C@H]3C(=O)NCC(=O)O)nc2)c1 [Example 7.83, 1-[5-(3-methyl-5-{[4-(trifluoromethyl)pyrimidin-2-yl]amino}phenyl)pyridin-2-yl]-L-prolylglycine] | < 100 nM
CCC[C@@H](Nc1ccc(-c2cc(C)cc(Nc3nccc(C(F)(F)F)n3)c2)cn1)C(=O)O [Example 7.107, N-[5-(3-methyl-5-{[4-(trifluoromethyl)pyrimidin-2-yl]amino}phenyl)pyridin-2-yl]-D-norvaline] | < 100 nM
Cc1cc(Nc2nccc(C(F)(F)F)n2)cc(-c2ccc(N[C@H](CC(C)C)C(=O)O)nc2)c1 [Example 7.70, N-[5-(3-methyl-5-{[4-(trifluoromethyl)pyrimidin-2-yl]amino}phenyl)pyridin-2-yl]-D-leucine] | < 100 nM
